From patent US12643881B2, “Bicyclic amine CDK12 inhibitors” (Incyte Corporation, priority 2021, dated 2026)

target: T1, CDK12 complexed with Cyclin K (Homo sapiens, UniProt Q9NYV4); test: Alternative CDK Enzymatic Assays (HTRF, pre-incubation with compounds and 1 mM ATP), Example A2; assay type: biochemical; details: enzyme pre-incubated with compounds and 1 mM ATP for 60 minutes; reaction 120 minutes at 25° C.
T1 construct: GST (N)
Source text: Example A2. Alternative CDK Enzymatic Assays
The following activity of the CDK enzymes in complex with their respective cyclins we assayed: CDK1 complexed with Cyclin B1; CDK2 complexed with Cyclin E1; CDK4 complexed with Cyclin D1; CDK6 complexed with Cyclin D1; CDK6 complexed with Cyclin D3; CDK9 complexed with Cyclin T1; CDK7 complexed with Cyclin H/MAT1; CDK2 complexed with Cyclin A2; CDK5 complexed with p35; CDK12 complexed with Cyclin K; CDK13 complexed with Cyclin K. These in vitro enzyme activity are assayed using homogeneous time-resolved energy transfer (HTRF), which measures phosphorylation of a peptide substrate. The LANCER Ultra kinase assay (PerkinElmer) uses a ULight™-labeled EIF4E-binding protein 1 (THR37/46) peptide (DYSTTPGGTLFSTTPGTRI (SEQ ID NO: 1)) substrate and a Europium-labeled anti-phospho-4E-BP1 antibody (CDK2, CDK1, CDK4, CDK6, CDK9, CDK12, CDK13) or ULight™-labeled Myelin Basic Protein peptide (VTPRTPPP (SEQ ID NO: 2)) substrate and a Europium-labeled anti-phospho-MBP antibody (CDK7). Each CDK enzyme activity assays utilized human CDK co-expressed as N-terminal GST-tagged protein with its full length cyclin partner using a baculovirus expression system.
Enzyme was pre-incubated with compounds and 1 mM ATP for 60 minutes (CDK 1, 2, 4, 6, 9, 7, 12, 13) prior to the addition of ATP and Ulight-peptide (1 mM and 50 nM final, respectively), in assay buffer containing 50 mM HEPES pH 7.5, 1 mM EGTA, 10 mM MgCl2, 2 mM DTT, 0.05 mg/mL BSA, and 0.01% Tween 20. The reaction was then incubated for 120 minutes at 25° C. incubator. The reactions were stopped by the addition of EDTA and Europium labeled antibody, for a final concentration of 15 mM and 0.5-1.5 nM, respectively. HTRF signals were read after 15-120 minutes. A ratio of fluorescence transferred to the labeled substrate (665 nm) relative to fluorescence of the Europium donor (620 nm) represents the extent of phosphorylation. Ratios for treated wells were normalized to DMSO only (100% activity) and no enzyme (0% activity) controls. Normalized data was analyzed using a three or four parameter dose response curve to determine IC50 for each compound and are shown in Table B. Control reference inhibitors were included on each plate.

T1 sequence (Q9NYV4 whole entry): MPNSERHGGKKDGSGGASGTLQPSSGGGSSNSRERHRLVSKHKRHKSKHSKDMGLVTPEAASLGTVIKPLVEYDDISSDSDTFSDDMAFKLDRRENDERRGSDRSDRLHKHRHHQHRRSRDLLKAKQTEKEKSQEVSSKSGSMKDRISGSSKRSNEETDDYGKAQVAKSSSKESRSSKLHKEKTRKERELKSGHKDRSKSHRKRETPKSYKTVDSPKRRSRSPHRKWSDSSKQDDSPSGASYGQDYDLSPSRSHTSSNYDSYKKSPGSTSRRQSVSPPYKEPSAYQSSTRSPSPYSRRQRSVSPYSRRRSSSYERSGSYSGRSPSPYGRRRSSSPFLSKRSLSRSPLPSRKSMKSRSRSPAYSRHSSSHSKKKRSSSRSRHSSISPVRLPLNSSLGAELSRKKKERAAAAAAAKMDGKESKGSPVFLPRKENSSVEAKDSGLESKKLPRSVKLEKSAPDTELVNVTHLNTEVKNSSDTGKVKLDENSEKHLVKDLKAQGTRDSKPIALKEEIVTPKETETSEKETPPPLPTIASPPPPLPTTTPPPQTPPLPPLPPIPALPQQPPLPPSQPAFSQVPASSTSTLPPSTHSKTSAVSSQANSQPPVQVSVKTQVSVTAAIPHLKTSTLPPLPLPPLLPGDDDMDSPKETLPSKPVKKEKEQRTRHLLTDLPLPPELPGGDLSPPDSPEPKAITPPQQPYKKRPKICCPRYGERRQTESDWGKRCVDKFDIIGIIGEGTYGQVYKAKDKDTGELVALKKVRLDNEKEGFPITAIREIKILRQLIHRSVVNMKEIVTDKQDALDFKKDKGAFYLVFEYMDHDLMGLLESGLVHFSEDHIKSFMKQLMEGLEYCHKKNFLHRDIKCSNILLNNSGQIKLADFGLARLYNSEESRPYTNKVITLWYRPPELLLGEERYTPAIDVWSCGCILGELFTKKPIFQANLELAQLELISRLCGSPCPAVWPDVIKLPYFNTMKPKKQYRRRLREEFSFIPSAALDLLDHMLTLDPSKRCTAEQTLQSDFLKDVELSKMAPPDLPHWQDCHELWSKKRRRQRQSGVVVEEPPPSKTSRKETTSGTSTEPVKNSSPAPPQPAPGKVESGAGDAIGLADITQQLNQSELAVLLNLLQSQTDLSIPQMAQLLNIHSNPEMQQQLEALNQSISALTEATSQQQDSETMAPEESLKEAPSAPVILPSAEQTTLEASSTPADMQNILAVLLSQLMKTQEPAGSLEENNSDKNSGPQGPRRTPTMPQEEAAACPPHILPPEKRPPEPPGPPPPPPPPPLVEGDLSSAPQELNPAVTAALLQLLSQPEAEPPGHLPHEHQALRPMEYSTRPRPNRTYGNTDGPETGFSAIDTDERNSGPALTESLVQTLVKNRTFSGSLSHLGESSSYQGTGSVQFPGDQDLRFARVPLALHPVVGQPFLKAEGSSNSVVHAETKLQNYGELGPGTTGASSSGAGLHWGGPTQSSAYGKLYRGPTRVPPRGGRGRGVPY
T1 sequence (O75909 whole entry partner): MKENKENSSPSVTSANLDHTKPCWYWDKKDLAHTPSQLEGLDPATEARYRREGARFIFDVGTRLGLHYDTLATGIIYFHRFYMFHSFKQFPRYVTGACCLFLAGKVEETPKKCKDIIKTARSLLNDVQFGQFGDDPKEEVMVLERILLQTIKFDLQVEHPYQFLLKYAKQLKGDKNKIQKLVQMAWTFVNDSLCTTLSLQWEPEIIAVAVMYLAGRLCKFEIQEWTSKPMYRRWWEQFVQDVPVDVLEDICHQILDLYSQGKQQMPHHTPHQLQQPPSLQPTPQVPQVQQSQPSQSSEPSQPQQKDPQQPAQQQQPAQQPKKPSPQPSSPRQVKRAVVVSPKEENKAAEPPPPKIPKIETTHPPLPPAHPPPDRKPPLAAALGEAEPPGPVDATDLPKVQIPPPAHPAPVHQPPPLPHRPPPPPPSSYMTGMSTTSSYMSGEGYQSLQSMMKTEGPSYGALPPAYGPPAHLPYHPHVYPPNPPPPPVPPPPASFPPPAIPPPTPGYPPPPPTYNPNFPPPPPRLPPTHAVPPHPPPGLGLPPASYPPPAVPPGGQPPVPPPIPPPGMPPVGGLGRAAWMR

Structure (SMILES)	IC50 [nM]
C=CC(=O)Nc1cc2nc(N3C[C@H](F)C[C@@H](Nc4ncc(C(F)(F)F)cn4)C3)n(C)c2cc1F [Example 132, N-(6-Fluoro-2-((3R,5R)-3-fluoro-5-((5-(trifluoromethyl)pyrimidin-2-yl)amino)piperidin-1-yl)-1-methyl-1H-benzo[d]imidazol-5-yl)acrylamide]	< 50
Cc1cc2c(cc1NC(=O)C#CC(C)(C)O)nc(N1C[C@H](F)C[C@@H](Nc3ncc(C(F)(F)F)cn3)C1)n2C [Example 113, N-(2-((3R,5R)-3-Fluoro-5-((5-(trifluoromethyl)pyrimidin-2-yl)amino)piperidin-1-yl)-1,6-dimethyl-1H-benzo[d]imidazol-5-yl)-4-hydroxy-4-methylpent-2-ynamide]	< 50
C=CC(=O)Nc1ccc2c(c1)nc(N1CCC[C@@H](Nc3ncc(C(F)(F)F)s3)C1)n2C [Example 130, (R)—N-(1-Methyl-2-(3-((5-(trifluoromethyl)thiazol-2-yl)amino)piperidin-1-yl)-1H-benzo[d]imidazol-5-yl)acrylamide]	< 50
C=CC(=O)N1CCC(c2nccn3c(N4CCC[C@@H](Nc5ncc(C(F)(F)F)cn5)C4)ncc23)CC1 [Example 110, (R)-1-(4-(3-(3-((5-(Trifluoromethyl)pyrimidin-2-yl)amino)piperidin-1-yl)imidazo[1,5-a]pyrazin-8-yl)piperidin-1-yl)prop-2-en-1-one]	50 to 500
C=CC(=O)Nc1ccc2c(c1)nc(N1CCC[C@@H](Nc3ncc(C(F)(F)F)cn3)C1)n2C [Example 123, (R)—N-(1-Methyl-2-(3-((5-(trifluoromethyl)pyrimidin-2-yl)amino)piperidin-1-yl)-1H-benzo[d]imidazol-5-yl)acrylamide]	< 50
C=CC(=O)Nc1cc2nc(N3CC[C@H](O)[C@@H](Nc4ncc(C(F)(F)F)cn4)C3)n(C)c2cc1C [Example 149, N-(2-((3S,4S)-4-Hydroxy-3-((5-(trifluoromethyl)pyrimidin-2-yl)amino)piperidin-1-yl)-1,6-dimethyl-1H-benzo[d]imidazol-5-yl)acrylamide]	> 500
C=C(F)C(=O)Nc1cc2nc(N3C[C@H](F)C[C@@H](Nc4ncc(C(F)(F)F)cn4)C3)n(C)c2cc1C [Example 117, 2-Fluoro-N-(2-((3R,5R)-3-fluoro-5-((5-(trifluoromethyl)pyrimidin-2-yl)amino)piperidin-1-yl)-1,6-dimethyl-1H-benzo[d]imidazol-5-yl)acrylamide]	50 to 500
C=CC(=O)Nc1ccc2c(c1)nc(N1CC[C@H](F)[C@@H](Nc3ncc(C#N)cn3)C1)n2C [Example 126, N-(2-((3S,4S)-3-((5-Cyanopyrimidin-2-yl)amino)-4-fluoropiperidin-1-yl)-1-methyl-1H-benzo[d]imidazol-5-yl)acrylamide]	< 50
C=CC(=O)Nc1cc2nc(N3C[C@H](F)C[C@@H](Nc4ncc(C#N)c(N(C)C)n4)C3)n(C)c2cc1C [Example 157, N-(2-((3R,5R)-3-((5-Cyano-4-(dimethylamino)pyrimidin-2-yl)amino)-5-fluoropiperidin-1-yl)-1,6-dimethyl-1H-benzo[d]imidazol-5-yl)acrylamide]	50 to 500
COC/C=C/C(=O)Nc1cc2nc(N3C[C@H](F)C[C@@H](Nc4ncc(C(F)(F)F)cn4)C3)n(C)c2cc1C [Example 121, (E)-N-(2-((3R,5R)-3-Fluoro-5-((5-(trifluoromethyl)pyrimidin-2-yl)amino)piperidin-1-yl)-1,6-dimethyl-1H-benzo[d]imidazol-5-yl)-4-methoxybut-2-enamide]	50 to 500

Results, then the molecule that gave them:

IC50 [nM]	Structure (SMILES)
> 500	Cc1cc2c(cc1NC(=O)/C=C/CN1CCCCC1)nc(N1C[C@H](F)C[C@@H](Nc3ncc(C(F)(F)F)cn3)C1)n2C [Example 118, (E)-N-(2-((3R,5R)-3-Fluoro-5-((5-(trifluoromethyl)pyrimidin-2-yl)amino)piperidin-1-yl)-1,6-dimethyl-1H-benzo[d]imidazol-5-yl)-4-(piperidin-1-yl)but-2-enamide]
< 50	C=CC(=O)Nc1cc2nc(N3C[C@H](F)C[C@@H](Nc4ncc(C(F)(F)F)cn4)C3)n(C)c2cc1Br [Example 141, N-(6-Bromo-2-((3R,5R)-3-fluoro-5-((5-(trifluoromethyl)pyrimidin-2-yl)amino)piperidin-1-yl)-1-methyl-1H-benzo[d]imidazol-5-yl)acrylamide]
50 to 500	C=CC(=O)Nc1cc2nc(N3C[C@H](F)C[C@@H](Nc4ncc(C#N)c(C)n4)C3)n(C)c2cc1C [Example 164, N-(2-((3R,5R)-3-((5-Cyano-4-methylpyrimidin-2-yl)amino)-5-fluoropiperidin-1-yl)-1,6-dimethyl-1H-benzo[d]imidazol-5-yl)acrylamide]
50 to 500	C=CC(=O)Nc1cc2nc(N3C[C@H](F)C[C@@H](Nc4ncc(C#N)cn4)C3)n(C)c2cc1C [Example 96, N-(2-((3R,5R)-3-((5-cyanopyrimidin-2-yl)amino)-5-fluoropiperidin-1-yl)-1,6-dimethyl-1H-benzo[d]imidazol-5-yl)acrylamide]
50 to 500	C=CC(=O)N[C@@H]1CCN(c2nccn3c(N4C[C@H](F)C[C@@H](Nc5ncc(C(F)(F)F)cn5)C4)ncc23)C1 [Example 86, N—((R)-1-(3-((3R,5R)-3-Fluoro-5-((5-(trifluoromethyl)pyrimidin-2-yl)amino)piperidin-1-yl)imidazo[1,5-a]pyrazin-8-yl)pyrrolidin-3-yl)acrylamide]
50 to 500	C=CC(=O)Nc1c(C)cc2c(nc(N3C[C@H](F)C[C@@H](Nc4ncc(C#N)cn4)C3)n2C)c1Br [Example 145, N-(4-Bromo-2-((3R,5R)-3-((5-cyanopyrimidin-2-yl)amino)-5-fluoropiperidin-1-yl)-1,6-dimethyl-1H-benzo[d]imidazol-5-yl)acrylamide]
50 to 500	CC#CC(=O)Nc1cc2nc(N3C[C@H](F)C[C@@H](Nc4ncc(C(F)(F)F)cn4)C3)n(C)c2cc1C [Example 116, N-(2-((3R,5R)-3-Fluoro-5-((5-(trifluoromethyl)pyrimidin-2-yl)amino)piperidin-1-yl)-1,6-dimethyl-1H-benzo[d]imidazol-5-yl)but-2-ynamide]
50 to 500	C=CC(=O)Nc1cc2nc(N3C[C@H](F)C[C@@H](Nc4ccc(C#N)cn4)C3)n(C)c2cc1C [Example 163, N-(2-((3R,5R)-3-((5-Cyanopyridin-2-yl)amino)-5-fluoropiperidin-1-yl)-1,6-dimethyl-1H-benzo[d]imidazol-5-yl)acrylamide]
50 to 500	C=CC(=O)Nc1cc2nc(N3C[C@H](F)C[C@@H](Nc4ncc(C(F)(F)F)cn4)C3)n(C)c2cc1C(=O)N1CCCC1 [Example 138, N-(2-((3R,5R)-3-Fluoro-5-((5-(trifluoromethyl)pyrimidin-2-yl)amino)piperidin-1-yl)-1-methyl-6-(pyrrolidine-1-carbonyl)-1H-benzo[d]imidazol-5-yl)acrylamide]
50 to 500	C=CC(=O)Nc1cc2nc(N3C[C@H](F)C[C@@H](Nc4ncc(C(F)(F)F)cn4)C3)n(C)c2cc1C(=O)N1CCOCC1 [Example 137, N-(2-((3R,5R)-3-Fluoro-5-((5-(trifluoromethyl)pyrimidin-2-yl)amino)piperidin-1-yl)-1-methyl-6-(morpholine-4-carbonyl)-1H-benzo[d]imidazol-5-yl)acrylamide]
50 to 500	C=CC(=O)Nc1cc2nc(N3C[C@H](F)C[C@@H](Nc4ncc(C(F)F)cn4)C3)n(C)c2cc1C [Example 160, N-(2-((3R,5R)-3-((5-(Difluoromethyl)pyrimidin-2-yl)amino)-5-fluoropiperidin-1-yl)-1,6-dimethyl-1H-benzo[d]imidazol-5-yl)acrylamide]
50 to 500	C=CC(=O)N1[C@H](C)CN(c2nccn3c(N4C[C@H](F)C[C@@H](Nc5ncc(C(F)(F)F)cn5)C4)ncc23)C[C@@H]1C [Example 104, 1-((2S,6R)-4-(3-((3R,5R)-3-Fluoro-5-((5-(trifluoromethyl)pyrimidin-2-yl)amino)piperidin-1-yl)imidazo[1,5-a]pyrazin-8-yl)-2,6-dimethylpiperazin-1-yl)prop-2-en-1-one]
50 to 500	C=CC(=O)Nc1c(C)cc2c(nc(N3C[C@H](F)C[C@@H](Nc4ncc(C(F)(F)F)cn4)C3)n2C)c1Br [Example 146, N-(4-Bromo-2-((3R,5R)-3-fluoro-5-((5-(trifluoromethyl)pyrimidin-2-yl)amino)piperidin-1-yl)-1,6-dimethyl-1H-benzo[d]imidazol-5-yl)acrylamide]
50 to 500	C=CC(=O)Nc1cc2nc(N3C[C@H](Nc4ncc(C(F)(F)F)cn4)C[C@@H](OC)C3)n(C)c2cc1C [Example 111, N-(2-((3R,5R)-3-Methoxy-5-((5-(trifluoromethyl)pyrimidin-2-yl)amino)piperidin-1-yl)-1,6-dimethyl-1H-benzo[d]imidazol-5-yl)acrylamide]
